Square brackets hold non-standard residues; d marks the D form. Peptide text beside a SMILES is read from it. * marks the point of attachment. Tyr(Nα,Nα-allyl2) = C=CCN(CC=C)[C@@H](Cc1ccc(O)cc1)C(=O)*; Aib = CC(C)(N)C(=O)O
Experiments:
[1] = target: T1, δ2 opioid receptor (Mus musculus, UniProt P32300); test: Mouse tail flick antinociception, antagonism of DSLET; format: in vivo; conditions: BNTX 6.25 pmol/i.c.v./mouse
T1 construct: from tissue; host or cells: live mouse (BNTX i.c.v.)
Procedure: (§1) The antagonist effect of BNTX on antinociception was evaluated in mice using the tail flick assay, in accord with the procedure of A. E. Takemor, et al., J. Pharmacol. Exp. Ther., 243, 91 (1987). At least three groups of ten mice were used to generate dose-response curves. A mouse was regarded as positive for antinociception if the latency to flick its tail was more than the control latency plus 3 S.D. of the mean reaction time of the group. The reaction times were determined at the peak time for antinociception after administration of various agonists. Intra-cerebroventricular (i.c.v.) injections were made in a volume of 5 μl by the method of T. J. Haley et al., Br. J. Pharmacol., 12, 12 (1957).
(§2) On Table III, the potencies are expressed as ED50 ratios, which represent the ED50 of the standard agonist administered subcutaneously in the presence of BNTX (6.25 pmoL/i.c.v./mouse), divided by the ED50 of the standard agonist.

[2] = target: T2, delta opioid receptor (δ; printed δ1 for DADLE in Table III) (Mus musculus, UniProt P32300); test: Mouse vas deferens (MVD) smooth muscle, antagonism of DADLE; format: cell-based; conditions: data of Table II, MVD/GPI
T2 construct: Both vasa deferentia were dissected out of mice; from tissue; host or cells: mouse vas deferens
T2 sequence (P32300 whole entry): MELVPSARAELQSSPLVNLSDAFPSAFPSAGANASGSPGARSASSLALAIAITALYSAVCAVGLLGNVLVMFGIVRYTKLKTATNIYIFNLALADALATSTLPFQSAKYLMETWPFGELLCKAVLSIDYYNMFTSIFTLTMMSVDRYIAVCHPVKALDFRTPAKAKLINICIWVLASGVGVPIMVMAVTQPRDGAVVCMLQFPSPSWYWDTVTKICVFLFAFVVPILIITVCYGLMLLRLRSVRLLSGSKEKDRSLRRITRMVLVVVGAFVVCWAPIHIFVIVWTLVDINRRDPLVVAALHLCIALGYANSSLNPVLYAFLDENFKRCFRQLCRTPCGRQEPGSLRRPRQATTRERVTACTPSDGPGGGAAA
Procedure: This assay was performed according to the description by G. Henderson et al., Brit. J. Pharmacol., 46, 764 (1972). […] The organ bath was maintained at 37° C.
Concentration-response curves were obtained in the absence (control) and the presence of the antagonist are expressed as IC50 values. […] Therefore, a high IC50 ratio represents a correspondingly high degree of antagonism at a particular receptor. […] Therefore, a low Ke represents a correspondingly high degree of binding at a particular receptor.

[3] = target: T3, κ opioid receptor (Mus musculus, UniProt P33534); test: Mouse tail flick antinociception, antagonism of U50488H (κ agonist); format: in vivo; conditions: BNTX 6.25 pmol/i.c.v./mouse
T3 construct: from tissue; host or cells: live mouse (BNTX i.c.v.)
T3 sequence (P33534 whole entry): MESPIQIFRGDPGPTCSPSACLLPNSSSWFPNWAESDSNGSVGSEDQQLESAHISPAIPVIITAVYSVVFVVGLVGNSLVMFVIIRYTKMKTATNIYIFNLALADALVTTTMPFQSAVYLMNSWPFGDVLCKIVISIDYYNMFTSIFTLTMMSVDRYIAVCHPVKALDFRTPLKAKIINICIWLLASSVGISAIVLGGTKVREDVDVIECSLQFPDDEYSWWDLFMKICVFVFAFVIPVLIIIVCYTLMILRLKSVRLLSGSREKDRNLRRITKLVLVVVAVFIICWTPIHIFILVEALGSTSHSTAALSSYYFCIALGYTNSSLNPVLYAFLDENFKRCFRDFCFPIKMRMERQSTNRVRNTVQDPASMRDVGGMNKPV
Procedure: as §1, §2

[4] = target: T4, μ opioid receptor (Mus musculus, UniProt P42866); test: Mouse tail flick antinociception, antagonism of mu agonist; format: in vivo; conditions: BNTX 6.25 pmol/i.c.v./mouse
T4 construct: from tissue; host or cells: live mouse (BNTX i.c.v.)
T4 sequence (P42866 whole entry): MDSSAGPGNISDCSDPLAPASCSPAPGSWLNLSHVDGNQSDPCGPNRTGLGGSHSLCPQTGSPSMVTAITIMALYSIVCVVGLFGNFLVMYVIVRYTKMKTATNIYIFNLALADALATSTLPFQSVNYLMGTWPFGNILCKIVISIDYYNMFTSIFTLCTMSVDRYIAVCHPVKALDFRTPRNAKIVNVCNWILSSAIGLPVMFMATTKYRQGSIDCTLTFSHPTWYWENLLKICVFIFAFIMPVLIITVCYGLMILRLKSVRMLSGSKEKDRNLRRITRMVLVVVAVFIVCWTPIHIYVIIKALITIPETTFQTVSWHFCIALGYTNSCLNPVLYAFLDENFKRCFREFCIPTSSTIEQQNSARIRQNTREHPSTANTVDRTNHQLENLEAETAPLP
Procedure: as §1, §2

[5] = tested on: δ1 receptors; format: binding; conditions: guinea pig brain membranes
Procedure: Therefore, a better assessment of the δ subtype selectivity can be obtained from binding of brain membranes and from antagonism studies in mice. The binding of BNTX to guinea pig brain membranes was determined using the general method of L. L. Werling et al., J. Pharmacol. Exp. Ther., 233, 722 (1985), as modified by A. E. Takemori et al., J. Pharmacol. Exp. Ther., 246, 255 (1988). The radio-ligands employed were [^3 H]DPDPE ([D-Pen ^2, D-Pen^5 ] enkephalin) for δ1 receptors, [^3 H]DSLET([D-Ser^2 -Leu^5 ]enkephalin-Thr^6) for δ^2 receptors, [3H]DAMGO for μ receptors and U69593(trans-(+)-3,4-dichloro-N-methyl-N-[2-(1-pyrididinyl)cyclohexyl]benzeneacetamide) for κ receptors.

[6] = tested on: ethanol drinking; conditions: in vivo; cited from earlier work
[7] = tested on: ethanol drinking; conditions: rats bred for high voluntary ethanol drinking; application Ser. No. 07/750,109; cited from earlier work
[8] = tested on: ethanol intake; conditions: rat model of alcoholism; cited from earlier work
[9] = tested on: alcohol relapse in recovering alcoholics; conditions: cited from earlier work

T1 sequence (P32300 whole entry): as the sequence (P32300 whole entry) above

SMILES: O=C1C(=Cc2ccccc2)C[C@@]2(O)[C@H]3Cc4ccc(O)c5c4[C@@]2(CCN3CC2CC2)[C@H]1O5 [BNTX, 7-Benzylidene-7-dehydronaltrexone]
- shift of dose-response curve, DSLET ([1]; words): not shifted significantly
- ED50 Ratio ("Potency Ratio"), DSLET (δ2) ([1]; ED50 of DSLET in presence of BNTX / ED50 of agonist): 0.91
- selectivity (smooth muscle, words) [2]: δ-selective antagonist
- shift of dose-response curve, U50488H ([3]; words): not shifted significantly
- ED50 Ratio ("Potency Ratio"), U50488H (κ) ([3]; ED50 of U50488H in presence of BNTX / ED50 of agonist): 1.2
- shift of dose-response curve, morphine ([4]; words): not shifted significantly
- ED50 Ratio ("Potency Ratio"), DAMGO (μ) ([4]; ED50 of DAMGO (so in the source) in presence of BNTX / ED50 of agonist): 0.88
- selectivity (binding, words) [5]: highly selective for δ1 receptor sites

SMILES: C=CCN(CC=C)[C@@H](Cc1ccc(O)cc1)C(=O)NC(C)(C)C(=O)NC(C)(C)C(=O)N[C@@H](Cc1ccccc1)C(=O)N[C@@H](CC(C)C)C(=O)O [ICI 174864, N,N-diallyl-Tyr-Aib-Aib-Phe-Leu-OH] ({Tyr(Nα,Nα-allyl2)}-[Aib][Aib]FL-OH)
- duration of action [6]: very short duration of action
- ethanol drinking [6]: strongly inhibits ethanol drinking

SMILES: Oc1ccc2c3c1O[C@H]1c4oc5ccccc5c4C[C@@]4(O)[C@@H](C2)N(CC2CC2)CC[C@]314 [NTB]
- suppression of ethanol drinking / water intake [7]: unexpectedly prolonged suppression of ethanol drinking without altering water intake

SMILES: Oc1ccc2c3c1O[C@H]1c4[nH]c5ccccc5c4C[C@@]4(O)[C@@H](C2)N(CC2CC2)CC[C@]314 [NTI]
- suppression of ethanol drinking / water intake [7]: unexpectedly prolonged suppression of ethanol drinking without altering water intake

SMILES: C=CCN1CC[C@]23c4c5ccc(O)c4O[C@H]2C(=O)CC[C@@]3(O)[C@H]1C5 [Naloxone, naloxone]
- ethanol and water intake [8]: suppress ethanol but not water intake

SMILES: O=C1CC[C@@]2(O)[C@H]3Cc4ccc(O)c5c4[C@@]2(CCN3CC2CC2)[C@H]1O5 [Naltrexone, naltrexone]
- incidence of relapse in recovering alcoholics [9]: reduce the incidence of relapse in recovering alcoholics

Source: patent US6271239A, “Delta opioid receptor-selective benzylidene-substituted morphinans” (Regents of the University of Minnesota, priority 1995, dated 2001)
